Key:
[1] = test system: Influenza A/Panama/2007/99 (H3N2)
[2] = test system: Influenza A/New Calcdonia/20/99 (H1N1)
MDCK cells = settings: Influenza A (H1N1) test
in vitro [3] = settings: dog
[4] = test system: Influenza A/Panama/2007/99 (H3N2); experiment: microbe, parasite or virus in culture; settings: H3N2, MDCK
[5] = test system: Influenza A/New Calcdonia/20/99 (H1N1); experiment: microbe, parasite or virus in culture; settings: H1N1, MDCK
[6] = test system: humanized, non-lethal influenza virus; experiment: Viral titers in rats after intranasal pre-infection treatment and influenza challenge; assay type: in vivo, Fisher 344 rats; settings: intranasal administration prior to infection, 24 hours after the infection, compared also to IFN-α pretreatment
[7] = test system: Severe acute respiratory syndrome (SARS) coronavirus, strain Urbani
[8] = test system: Human coronavirus (HcoV), strain OC43
in vitro [9] = settings: African green monkey
[10] = test system: Severe acute respiratory syndrome (SARS) coronavirus, strain Urbani; experiment: microbe, parasite or virus in culture; settings: Severe acute respiratory syndrome-related coronavirus, Vero 76, SARS, Vero 76 cells; PBMC supernatant = indirect, IRM in media = direct
[11] = test system: Human coronavirus (HcoV), strain OC43; experiment: microbe, parasite or virus in culture; settings: unidentified human coronavirus, OC43, BSC-1

SMILES | SI (CC50/EC50) [1] | SI (CC50/EC50) [2] | CC50 (MDCK cells) [µM] | CC50 (in vitro [3]) [µM] | EC50 [4] [µM] | EC50 [5] [µM] | viral titer present in the lung [6] | viral titer present in the nasal cavity [6] | SI (CC50/EC50) [7] | antiviral activity (in words) [7] | SI (CC50/EC50) [8] | CC50 (in vitro [9]) [µM] | EC50 [10] [µM] | EC50 [11] [µM]
NC(=O)c1ncn([C@@H]2O[C@H](CO)[C@@H](O)[C@H]2O)n1 [Ribavirin, ribavirin, reference compound] | >19 | >32 | > 450 | > 450 | 24 | 14 |  |  |  |  |  |  |  | 
CCOCc1nc2c(N)nc3ccccc3c2n1CC(C)(C)NS(C)(=O)=O [IRM, N-{2-[4-amino-2-(ethoxymethyl)-1H-imidazo[4,5-c]quinolin-1-yl]-1,1-dimethylethyl}methanesulfonamide] | 0 | 0 | > 300 | > 300 | > 300 | > 300 | dramatically reduced | dramatically reduced | 50 | significant direct activity | 0 | > 150 | ~3 | > 150

Reference: patent US20050070460A1 (priority 2003, published 2005)
